Test results taken from patent publication US9469674B2 (HAINAN UNIVERSITY, dated 2016).
Entries after “also recorded” stand apart in the source; their conditions may differ. Where a SMILES comes first, the peptide text is derived from it. Bridges are numbered along the chain shown (N, C = ends). Where no end group is shown, it is not given here.

What was measured:
human α6/α3β2β3 nAChR = human α6/α3β2β3 nAChR (Homo sapiens, UniProt P17787+P32297+Q15825); assay: cell-based; type: cell-based
α2β4 nAChR = α2β4 nAChR (Rattus norvegicus, UniProt P12389+P12392); assay: cell-based; type: cell-based
α2β2 nAChR = α2β2 nAChR (Rattus norvegicus, UniProt P12389+P12390); assay: cell-based; type: cell-based
α9α10 nAChR = α9α10 nAChR (Rattus norvegicus, UniProt P43144+Q9JLB5); assay: cell-based
α6/α3β2β3 nAChR = α6/α3β2β3 nAChR (Rattus norvegicus, UniProt P04757+P12390+P43143); assay: cell-based; type: cell-based
α6/α3β2β3 nAChR, sequence (P04757 whole entry, looked up): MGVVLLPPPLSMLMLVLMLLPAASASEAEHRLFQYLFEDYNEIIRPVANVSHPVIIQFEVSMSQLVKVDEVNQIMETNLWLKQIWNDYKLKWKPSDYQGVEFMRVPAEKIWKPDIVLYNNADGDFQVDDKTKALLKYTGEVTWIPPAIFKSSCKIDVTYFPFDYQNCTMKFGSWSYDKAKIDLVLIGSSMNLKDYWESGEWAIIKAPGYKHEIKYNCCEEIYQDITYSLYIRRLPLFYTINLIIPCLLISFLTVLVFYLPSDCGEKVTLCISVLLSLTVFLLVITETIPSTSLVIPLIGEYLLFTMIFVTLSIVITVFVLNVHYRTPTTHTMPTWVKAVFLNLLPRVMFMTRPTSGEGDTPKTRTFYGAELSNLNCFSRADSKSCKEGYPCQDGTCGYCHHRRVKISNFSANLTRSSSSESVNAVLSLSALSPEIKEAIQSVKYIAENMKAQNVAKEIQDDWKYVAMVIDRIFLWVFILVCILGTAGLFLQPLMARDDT
α6/α3β2β3 nAChR, sequence (P12390 whole entry, looked up): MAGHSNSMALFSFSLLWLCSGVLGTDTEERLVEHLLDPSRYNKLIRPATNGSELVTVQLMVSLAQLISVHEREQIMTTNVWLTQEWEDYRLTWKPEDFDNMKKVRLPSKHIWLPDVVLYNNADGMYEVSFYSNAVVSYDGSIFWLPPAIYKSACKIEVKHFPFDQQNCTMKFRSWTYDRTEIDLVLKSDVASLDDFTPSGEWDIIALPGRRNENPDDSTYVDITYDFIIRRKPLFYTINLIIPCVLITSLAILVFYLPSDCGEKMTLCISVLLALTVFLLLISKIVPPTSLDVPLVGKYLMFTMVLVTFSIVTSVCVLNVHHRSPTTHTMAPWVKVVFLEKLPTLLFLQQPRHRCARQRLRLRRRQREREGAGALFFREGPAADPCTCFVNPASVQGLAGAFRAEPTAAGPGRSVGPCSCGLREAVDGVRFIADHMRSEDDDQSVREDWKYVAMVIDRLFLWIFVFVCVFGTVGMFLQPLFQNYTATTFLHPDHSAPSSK
α6/α3β2β3 nAChR, sequence (P43143 whole entry, looked up): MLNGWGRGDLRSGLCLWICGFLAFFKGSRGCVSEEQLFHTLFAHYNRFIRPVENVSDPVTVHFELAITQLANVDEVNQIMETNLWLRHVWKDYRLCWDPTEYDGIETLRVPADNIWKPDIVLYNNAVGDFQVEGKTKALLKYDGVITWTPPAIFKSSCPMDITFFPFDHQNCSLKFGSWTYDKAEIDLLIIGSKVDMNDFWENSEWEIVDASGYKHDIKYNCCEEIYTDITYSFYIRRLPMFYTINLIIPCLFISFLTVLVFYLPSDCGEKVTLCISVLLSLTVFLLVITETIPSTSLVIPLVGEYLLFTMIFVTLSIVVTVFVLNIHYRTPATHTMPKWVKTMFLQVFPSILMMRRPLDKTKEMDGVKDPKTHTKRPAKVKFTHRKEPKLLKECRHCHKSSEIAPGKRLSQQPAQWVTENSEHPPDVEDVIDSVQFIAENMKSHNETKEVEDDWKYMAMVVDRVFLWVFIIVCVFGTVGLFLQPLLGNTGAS

α7 nAChR = α7 nAChR (Rattus norvegicus, UniProt Q05941); assay: cell-based; type: cell-based
α7 nAChR, sequence (Q05941 23-502 limits assumed): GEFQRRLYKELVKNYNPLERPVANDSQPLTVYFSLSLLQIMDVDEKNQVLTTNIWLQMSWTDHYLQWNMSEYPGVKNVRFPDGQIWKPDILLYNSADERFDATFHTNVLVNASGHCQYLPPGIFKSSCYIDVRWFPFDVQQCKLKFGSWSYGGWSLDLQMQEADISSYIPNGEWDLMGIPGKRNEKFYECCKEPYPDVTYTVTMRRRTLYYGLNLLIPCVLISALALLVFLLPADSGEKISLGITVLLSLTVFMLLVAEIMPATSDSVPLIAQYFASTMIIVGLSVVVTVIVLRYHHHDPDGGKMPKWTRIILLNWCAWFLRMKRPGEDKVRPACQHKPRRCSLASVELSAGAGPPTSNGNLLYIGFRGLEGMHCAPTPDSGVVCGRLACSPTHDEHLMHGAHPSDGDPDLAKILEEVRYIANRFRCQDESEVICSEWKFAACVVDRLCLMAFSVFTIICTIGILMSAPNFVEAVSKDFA

α4β4 nAChR = α4β4 nAChR (Rattus norvegicus, UniProt P09483+P12392); assay: cell-based; type: cell-based
α4β2 nAChR = α4β2 nAChR (Rattus norvegicus, UniProt P09483+P12390); assay: cell-based
α3β2 nAChR = α3β2 nAChR (Rattus norvegicus, UniProt P04757+P12390); assay: cell-based; type: cell-based; conditions: for IC50: IC50 (half-blocking dose)
α6/α3β4 nAChR = α6/α3β4 nAChR (Rattus norvegicus, UniProt P04757+P12392+P43143); assay: cell-based; type: cell-based
α6/α3β4 nAChR, sequence (P04757 whole entry, looked up): as the sequence (P04757 whole entry, looked up) above
α6/α3β4 nAChR, sequence (P12392 whole entry, looked up): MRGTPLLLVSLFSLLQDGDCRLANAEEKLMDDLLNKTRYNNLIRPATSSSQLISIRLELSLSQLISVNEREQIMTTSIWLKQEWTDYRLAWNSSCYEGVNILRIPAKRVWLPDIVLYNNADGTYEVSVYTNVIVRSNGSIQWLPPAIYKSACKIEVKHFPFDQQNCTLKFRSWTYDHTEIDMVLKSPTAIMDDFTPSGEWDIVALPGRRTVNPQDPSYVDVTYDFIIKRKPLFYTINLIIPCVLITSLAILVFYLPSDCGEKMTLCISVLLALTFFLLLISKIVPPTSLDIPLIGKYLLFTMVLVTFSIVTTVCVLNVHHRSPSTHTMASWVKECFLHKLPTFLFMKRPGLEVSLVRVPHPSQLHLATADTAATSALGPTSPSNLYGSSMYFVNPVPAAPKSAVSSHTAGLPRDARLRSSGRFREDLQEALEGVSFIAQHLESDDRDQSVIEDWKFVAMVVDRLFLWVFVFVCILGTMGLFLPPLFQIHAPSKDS
α6/α3β4 nAChR, sequence (P43143 whole entry, looked up): as the sequence (P43143 whole entry, looked up) above

α3β4 nAChR = α3β4 nAChR (Rattus norvegicus, UniProt P04757+P12392); assay: cell-based; type: cell-based
other nAChRs subtypes = type: cell-based; conditions: read-out: IC50 on other nAChRs subtypes (no blocking activity)
[1] = target: α9α10 acetylcholine receptor (Homo sapiens, UniProt Q9GZZ6+Q9UGM1); conditions: read-out: half-blocking dose IC50; cited from earlier work
α9α10 acetylcholine receptor, sequence (Q9UGM1 26-479 limits assumed): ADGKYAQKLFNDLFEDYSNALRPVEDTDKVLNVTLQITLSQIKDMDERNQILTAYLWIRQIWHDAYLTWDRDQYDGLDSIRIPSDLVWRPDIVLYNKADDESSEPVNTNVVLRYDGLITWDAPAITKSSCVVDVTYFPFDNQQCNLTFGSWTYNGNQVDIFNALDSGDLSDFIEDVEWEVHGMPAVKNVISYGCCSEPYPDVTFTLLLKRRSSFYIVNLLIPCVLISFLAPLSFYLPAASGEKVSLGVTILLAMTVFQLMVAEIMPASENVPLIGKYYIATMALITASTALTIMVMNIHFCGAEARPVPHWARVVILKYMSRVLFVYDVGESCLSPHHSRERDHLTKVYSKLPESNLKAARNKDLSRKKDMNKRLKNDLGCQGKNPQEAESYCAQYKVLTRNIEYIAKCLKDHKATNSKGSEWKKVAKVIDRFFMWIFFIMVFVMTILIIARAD
α9α10 acetylcholine receptor, sequence (Q9GZZ6 25-450 limits assumed): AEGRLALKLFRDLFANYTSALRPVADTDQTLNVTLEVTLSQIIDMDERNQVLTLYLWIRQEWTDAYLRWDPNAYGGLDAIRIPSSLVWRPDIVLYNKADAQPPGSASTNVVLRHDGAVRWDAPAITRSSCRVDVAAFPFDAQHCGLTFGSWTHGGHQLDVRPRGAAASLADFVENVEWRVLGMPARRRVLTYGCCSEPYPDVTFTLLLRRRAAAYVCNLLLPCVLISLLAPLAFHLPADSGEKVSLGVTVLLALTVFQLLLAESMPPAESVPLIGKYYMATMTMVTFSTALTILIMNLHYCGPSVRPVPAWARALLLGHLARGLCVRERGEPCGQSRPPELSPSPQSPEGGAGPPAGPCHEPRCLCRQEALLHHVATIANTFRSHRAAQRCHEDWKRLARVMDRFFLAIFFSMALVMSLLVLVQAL

[2] = target: α6/α3β4 acetylcholine receptor; conditions: read-out: half-blocking dose IC50; cited from earlier work
[3] = target: α3β2 acetylcholine receptor (Homo sapiens, UniProt P17787+P32297); conditions: read-out: half-blocking dose IC50; cited from earlier work
α3β2 acetylcholine receptor, sequence (P32297 32-505 limits assumed): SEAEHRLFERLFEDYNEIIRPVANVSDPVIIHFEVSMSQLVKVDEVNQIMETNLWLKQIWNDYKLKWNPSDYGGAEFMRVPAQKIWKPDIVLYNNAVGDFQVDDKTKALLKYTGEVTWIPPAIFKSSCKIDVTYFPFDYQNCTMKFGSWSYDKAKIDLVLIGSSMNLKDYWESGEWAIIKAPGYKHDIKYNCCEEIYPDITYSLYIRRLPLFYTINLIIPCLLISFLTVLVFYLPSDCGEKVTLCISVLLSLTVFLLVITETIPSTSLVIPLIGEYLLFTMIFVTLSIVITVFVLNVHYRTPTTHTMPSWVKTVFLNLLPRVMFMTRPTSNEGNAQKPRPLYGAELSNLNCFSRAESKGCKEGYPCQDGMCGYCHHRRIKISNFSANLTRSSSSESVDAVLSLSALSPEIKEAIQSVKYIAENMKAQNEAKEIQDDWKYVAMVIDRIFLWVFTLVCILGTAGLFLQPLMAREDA
α3β2 acetylcholine receptor, sequence (P17787 26-502 limits assumed): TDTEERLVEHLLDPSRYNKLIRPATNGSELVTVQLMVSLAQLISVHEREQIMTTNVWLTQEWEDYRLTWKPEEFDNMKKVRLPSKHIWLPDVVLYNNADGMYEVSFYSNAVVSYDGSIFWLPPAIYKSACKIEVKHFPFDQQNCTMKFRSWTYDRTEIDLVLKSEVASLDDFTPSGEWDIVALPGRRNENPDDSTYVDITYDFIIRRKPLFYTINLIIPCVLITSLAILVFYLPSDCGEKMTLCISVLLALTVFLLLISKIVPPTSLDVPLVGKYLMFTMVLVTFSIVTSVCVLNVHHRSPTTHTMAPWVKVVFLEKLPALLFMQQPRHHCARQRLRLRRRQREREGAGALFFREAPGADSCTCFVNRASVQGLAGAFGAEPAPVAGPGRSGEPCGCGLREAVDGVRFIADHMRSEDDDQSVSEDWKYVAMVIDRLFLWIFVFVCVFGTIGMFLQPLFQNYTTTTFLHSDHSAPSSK

[4] = target: α6/α3β2β3 acetylcholine receptor; conditions: read-out: half-blocking dose IC50; cited from earlier work
[5] = target: α7 acetylcholine receptor (Homo sapiens, UniProt P36544); conditions: read-out: half-blocking dose IC50; cited from earlier work
α7 acetylcholine receptor, sequence (P36544 23-502 limits assumed): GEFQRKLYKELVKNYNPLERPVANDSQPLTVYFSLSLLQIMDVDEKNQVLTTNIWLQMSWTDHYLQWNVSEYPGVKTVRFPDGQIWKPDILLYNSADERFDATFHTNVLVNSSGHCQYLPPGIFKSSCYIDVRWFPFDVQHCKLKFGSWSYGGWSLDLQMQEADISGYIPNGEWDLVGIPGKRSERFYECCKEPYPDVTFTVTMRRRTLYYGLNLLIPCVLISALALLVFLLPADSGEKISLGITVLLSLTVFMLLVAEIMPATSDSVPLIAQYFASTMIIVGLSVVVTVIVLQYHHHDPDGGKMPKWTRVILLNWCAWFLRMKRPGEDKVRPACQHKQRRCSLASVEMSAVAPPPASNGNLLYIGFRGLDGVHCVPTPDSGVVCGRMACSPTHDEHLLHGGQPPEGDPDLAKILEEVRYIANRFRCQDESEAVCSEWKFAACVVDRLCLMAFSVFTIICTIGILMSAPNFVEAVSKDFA

[6] = target: α3β4 acetylcholine receptor; conditions: read-out: half-blocking dose IC50; cited from earlier work
nAChRs = conditions: cited from earlier work
rat α4β2 nAChR = rat α4β2 nAChR (rat, UniProt P09483); assay: cell-based or functional assay
rat α9α10 nAChR = rat α9α10 nAChR (rat, UniProt P43144); assay: cell-based or functional assay
rat α2β2 nAChR = rat α2β2 nAChR (rat, UniProt P12389); assay: cell-based or functional assay
rat α3β4 nAChR = rat α3β4 nAChR (rat, UniProt P04757); assay: cell-based or functional assay
rat α3β2 nAChR = rat α3β2 nAChR (rat, UniProt P04757); assay: cell-based or functional assay
rat α2β4 nAChR = rat α2β4 nAChR (rat, UniProt P12389); assay: cell-based or functional assay
rat α4β4 nAChR = rat α4β4 nAChR (rat, UniProt P09483); assay: cell-based or functional assay
rat α7 nAChR = rat α7 nAChR (rat, UniProt Q05941); assay: cell-based or functional assay
[7] = target: rat α6/α3β2β3 nAChR (rat) (UniProt P12390)
rat α6/α3β4 nAChR (rat) = rat α6/α3β4 nAChR (rat) (UniProt P12392)

CC(C)C[C@@H]1NC(=O)[C@H](CC(=O)O)NC(=O)[C@@H]2CCCN2C(=O)[C@H](Cc2c[nH]cn2)NC(=O)[C@H](CCCCN)NC(=O)[C@H](CC(N)=O)NC(=O)[C@H](CCCNC(=N)N)NC(=O)[C@@H]2CSSC[C@H](NC(=O)CN)C(=O)N[C@@H](CSSC[C@@H](C(=O)NCC(N)=O)NC1=O)C(=O)N[C@@H](CO)C(=O)N[C@@H](CC(=O)O)C(=O)N1CCC[C@H]1C(=O)N1CCC[C@H]1C(=O)N2 [TxIB(G)] (H-GCCSDPPCRNKHPDLCG-NH2; disulfide 2-8, 3-16)
blocking activity on human α6/α3β2β3 nAChR (human α6/α3β2β3 nAChR): blocking activity similar to those for rat α6/α3β2β3 nAChR
IC50 (α2β4 nAChR): > 10 µM
IC50 (α2β2 nAChR): > 10 µM
IC50 (α9α10 nAChR): > 10 µM
IC50 (α6/α3β2β3 nAChR): 0.247 µM
Ratio of half-blocking dose (IC50) between TxIB(G) and TxIB (α6/α3β2β3 nAChR): 8.7
IC50 (α7 nAChR): > 10 µM
IC50 (α4β4 nAChR): > 10 µM
IC50 (α4β2 nAChR): > 10 µM
IC50 (α3β2 nAChR): > 10 µM
IC50 (α6/α3β4 nAChR): > 10 µM
IC50 (α3β4 nAChR): > 10 µM

CC(C)C[C@@H]1NC(=O)[C@H](CC(=O)O)NC(=O)[C@@H]2CCCN2C(=O)[C@H](Cc2c[nH]cn2)NC(=O)[C@H](CCCCN)NC(=O)[C@H](CC(N)=O)NC(=O)[C@H](CCCNC(=N)N)NC(=O)[C@@H]2CSSC[C@H](NC(=O)CN)C(=O)N[C@@H](CSSC[C@@H](C(N)=O)NC1=O)C(=O)N[C@@H](CO)C(=O)N[C@@H](CC(=O)O)C(=O)N1CCC[C@H]1C(=O)N1CCC[C@H]1C(=O)N2 [TxIB] (H-GCCSDPPCRNKHPDLC-NH2; disulfide 2-8, 3-16)
blocking activity on human α6/α3β2β3 nAChR (human α6/α3β2β3 nAChR): blocking activity similar to those for rat α6/α3β2β3 nAChR
Hill slope of dose-response curve (α6/α3β2β3 nAChR): 0.51 (0.41-0.60)
Ratio of half-blocking dose (IC50) between TxIB(G) and TxIB (α6/α3β2β3 nAChR): 1
blocking of ACh-gated current (α6/α3β2β3 nAChR): specifically blocked; also recorded: almost total blocked
blocking of ACh-gated current (α3β2 nAChR): totally does not block; also recorded: no blocking activity
IC50 (other nAChRs subtypes): > 10 µM
blocking of ACh-gated current (α6/α3β4 nAChR): totally does not block; also recorded: no blocking activity
blocking of ACh-gated current (α3β4 nAChR): totally does not block; also recorded: no blocking activity

CC(C)C[C@@H]1NC(=O)[C@H](CC(=O)O)NC(=O)[C@@H]2CCCN2C(=O)[C@H](Cc2cnc[nH]2)NC(=O)[C@H](CCCCN)NC(=O)[C@H](CC(N)=O)NC(=O)[C@H](CCCNC(=N)N)NC(=O)[C@@H]2CSSC[C@H](NC(=O)CN)C(=O)N[C@@H](CSSC[C@@H](C(N)=O)NC1=O)C(=O)N[C@@H](CO)C(=O)N[C@@H](CC(=O)O)C(=O)N1CCC[C@H]1C(=O)N1CCC[C@H]1C(=O)N2 [TxIB] (H-GCCSDPPCRNKHPDLC-NH2; disulfide 2-8, 3-16)
IC50 (α2β4 nAChR): > 10 µM
IC50 (α2β2 nAChR): > 10 µM
IC50 (α9α10 nAChR): > 10 µM
IC50 (α6/α3β2β3 nAChR): 0.0284 µM
IC50 (α7 nAChR): > 10 µM
IC50 (α4β4 nAChR): > 10 µM
IC50 (α4β2 nAChR): > 10 µM
IC50 (α3β2 nAChR): > 10 µM
IC50 (α6/α3β4 nAChR): > 10 µM
IC50 (α3β4 nAChR): > 10 µM

CC[C@H](C)[C@@H]1NC(=O)[C@@H]2CCCN2C(=O)[C@H](CO)NC(=O)[C@H](CCSC)NC(=O)[C@H](C)NC(=O)[C@H](CO)NC(=O)[C@@H]2CSSC[C@H](NC(=O)CN)C(=O)N[C@@H](CSSC[C@@H](C(N)=O)NC1=O)C(=O)N[C@@H](CO)C(=O)N[C@@H](Cc1c[nH]cn1)C(=O)N1CCC[C@H]1C(=O)N[C@@H](C(C)C)C(=O)N2 [TxIC]
Hill slope of dose-response curve (α2β4 nAChR): 0.20 (1.48-2.42)
blocking of ACh-gated current (α7 nAChR): totally does not block; also recorded: no blocking activity
blocking of ACh-gated current (α4β4 nAChR): totally does not block; also recorded: no blocking activity
IC50 (other nAChRs subtypes): > 10 µM
Hill slope of dose-response curve (α6/α3β4 nAChR): 0.26 (0.73-1.87)
Hill slope of dose-response curve (α3β4 nAChR): 0.19 (0.66-1.44)
blocking of ACh-gated current (α3β4 nAChR): specifically blocked; also recorded: completely blocked

GCCSDPRCNYDHPEIC* [Vc1.1]
IC50 [1]: 0.019 µM
IC50 [2]: 0.98 µM
IC50 [3]: 7.3 µM
IC50 [4]: 0.14 µM

GCCSHPACNVNNPHIC* [RegIIA]
IC50 [3]: 0.033 µM
IC50 [5]: 0.103 µM
IC50 [6]: 0.097 µM

GCCSHPACSVNHPELC* [PeIA]
IC50 [1]: 0.0069 to 0.0549 µM
IC50 [3]: 0.023 to 0.0975 µM
IC50 [5]: 1.8 µM
IC50 [6]: 0.48 µM

GCCSYPPCFATNP-DC* [AuIB]
IC50 [6]: 0.75 µM

NGRCC-HPACGKHFN--C* [Ac1.1a]
nAChRs selectivity (nAChRs): Muscle nAChR

RDPCCSNPVCTVHNPQIC* [PIA]
IC50 [2]: 0.0126 to 0.0305 µM
IC50 [3]: 0.0742 µM
IC50 [4]: 0.001 to 0.0017 µM
IC50 [6]: 0.518 µM

RTCCSRPTCRMEYPELC*grr [SrIA/SrIB]
nAChRs selectivity (nAChRs): Muscle nAChR/α4β2

B1: α-conotoxin TxIB/Txd4 (peptide)
peptide: GCCSDPPCRNKHPDLC
modifications: not fully specified; ends and bridges not checked
IC50 (half-blocking dose) on ACh-gated current (rat α4β2 nAChR): > 10 µM
IC50 (half-blocking dose) on ACh-gated current (rat α9α10 nAChR): > 10 µM
IC50 (half-blocking dose) on ACh-gated current (rat α2β2 nAChR): > 10 µM
IC50 (half-blocking dose) on ACh-gated current (rat α3β4 nAChR): > 10 µM
IC50 (half-blocking dose) on ACh-gated current (rat α3β2 nAChR): > 10 µM
IC50 (half-blocking dose) on ACh-gated current (rat α2β4 nAChR): > 10 µM
IC50 (half-blocking dose) on ACh-gated current (rat α4β4 nAChR): > 10 µM
IC50 (half-blocking dose) on ACh-gated current (rat α7 nAChR): > 10 µM
IC50 (half-blocking dose) on ACh-gated current [7]: 0.0284 µM
IC50 (half-blocking dose) on ACh-gated current (rat α6/α3β4 nAChR (rat)): > 10 µM

B2: α-conotoxin TxIB/Txd4(G) (peptide)
peptide: GCCSDPPCRNKHPDLCG
modifications: not fully specified; ends and bridges not checked
IC50 (half-blocking dose) on ACh-gated current (rat α4β2 nAChR): > 10 µM
IC50 (half-blocking dose) on ACh-gated current (rat α9α10 nAChR): > 10 µM
IC50 (half-blocking dose) on ACh-gated current (rat α2β2 nAChR): > 10 µM
IC50 (half-blocking dose) on ACh-gated current (rat α3β4 nAChR): > 10 µM
IC50 (half-blocking dose) on ACh-gated current (rat α3β2 nAChR): > 10 µM
IC50 (half-blocking dose) on ACh-gated current (rat α2β4 nAChR): > 10 µM
IC50 (half-blocking dose) on ACh-gated current (rat α4β4 nAChR): > 10 µM
IC50 (half-blocking dose) on ACh-gated current (rat α7 nAChR): > 10 µM
IC50 (half-blocking dose) on ACh-gated current [7]: 0.247 µM
IC50 (half-blocking dose) on ACh-gated current (rat α6/α3β4 nAChR (rat)): > 10 µM
